Test results published in patent US20250320198A1, “SALT OF ENDOTHELIN A (ETA) RECEPTOR ANTAGONIST COMPOUND, AND PREPARATION METHOD THEREFOR AND MEDICAL USE THEREOF” (SHENZHEN SALUBRIS PHARMACEUTICALS CO., LTD, priority 2022, published 2025).

Assays:
[1] = Research on compound microsome: prototype remaining and transformation to Atrasentan in human liver microsomes (+NADPH); type: in vitro ADME; details: human liver microsome (+NADPH), 37° C.
Procedure: Human liver microsomes were all purchased from Rild Liver Disease Research (Shanghai) Co., Ltd.
Reagents: dimethyl sulfoxide (DMSO), acetonitrile, formic acid, and propranolol (internal standard) are all commercially available.
Instrument: Thermo Fisher Scientific LC-MS (U300 UPLC, TSQ QUANTUMN ULTRA triple quadrupole mass spectrometer).
A certain amount of compound was precisely weighed and dissolved in DMSO to prepare a 10 mM stock solution, and the stock solution was diluted with a diluent (ACN:H2O=1:1) to a 100 μM working solution, and then diluted with a 0.1 M potassium phosphate buffer solution to a 3 μM administration solution for later use. 75 μL of liver microsomes were taken and added into 925 μL of a 0.1 M potassium phosphate buffer solution to be mixed uniformly to obtain a 1.5 mg/mL liver microsome suspension, and the liver microsome suspension was pre-incubated at 37° C. for 10 minutes. Preparation at 0 o'clock: 15 μL of the above liver microsome suspension was taken and added into a 6 mM NADPH solution, 150 μL of a propranolol acetonitrile solution was added immediately for precipitation, and then 15 μL of the above administration solution was added and mixed uniformly for later use. Preparation of samples at 20 minutes and 60 minutes: 15 μL of the administration solution was taken, 15 μL of the liver microsome suspension and 15 μL of the 6 mM NADPH solution were added and mixed uniformly, and a mixture was incubated at 37° C. for 20 minutes and 60 minutes, respectively. The preparation of the above samples was carried out using dual-pore parallel operation. When the above samples are incubated to the relevant time point, 150 μL of the propranolol acetonitrile solution was added to terminate the reaction. All the above samples were centrifuged at 4000 rpm for 5 minutes, and 100 μL of a supernatant was taken, added into 100 μL of ultrapure water and mixed uniformly for LC-MS/MS analysis. LC-MS/MS detection conditions are as follows:
Chromatographic column: Waters ACQUITY™ PREMIER HSS T3, 50*2.1 mm, 1.8 μm.
Mobile phase: water (0.1% formic acid)—acetonitrile. Perform gradient elution according to the table below.
An initial 0 o'clock was taken as 100%, a relative residual content of the drug at each time point was calculated, and each time point of Atrasentan was taken as 100% to calculate the relative amount of transformation of the compound in the embodiment to Atrasentan.

[2] = Pharmacokinetic study of compound in rats (Embodiment 14), intragastric administration; type: in vivo; details: SD rats
From the text: SD rats: male, 200-300 g, purchased from Beijing Vital River Laboratory Animal Technology Co., Ltd.
Reagents: dimethyl sulfoxide (DMSO), polyethylene glycol 400 (PEG-400), normal saline, heparin, acetonitrile, formic acid, and propranolol (internal standard) are all commercially available.
Instrument: Thermo Fisher Scientific LC-MS/MS (U300 UPLC, TSQ QUANTUMN ULTRA triple quadrupole mass spectrometer).
The compound was weighed and dissolved in a DMSO-PEG-400-normal saline (5:60:35, v/v/v) system. After intragastric administration to rats, 200 μL of venous blood was collected in a sodium-fluoride heparinized EP tube at 15 minutes, 30 minutes, 1 hour, 2 hours, 5 hours, 7 hours, and 24 hours after administration and centrifuged at 12000 rpm for 2 minutes. Plasma was taken and frozen and preserved at −80° C. for testing. A certain amount of samples for test was precisely weighed and dissolved in DMSO to 2 mg/mL as a stock solution. An appropriate amount of compound stock solution was accurately sucked, and diluted by adding acetonitrile to prepare a standard series solution. 20 μL of each of the above standard series solution was accurately sucked, 180 μL of blank plasma was added, and vortex mixing was performed to prepare plasma samples equivalent to plasma concentrations of 1 ng/mL, 3 ng/mL, 5 ng/mL, 10 ng/mL, 30 ng/mL, 100 ng/mL, 300 ng/mL, 1000 ng/mL, and 3000 ng/mL. […]

[3] = Study on stability of salts (chemical stability by HPLC); type: physicochemical
[4] = Study on hygroscopicity by dynamic vapor sorption (DVS); type: physicochemical
Procedure: Hygroscopicity of sulphate, phosphate, hydrochloride, and oxalate was evaluated using a dynamic vapor sorption (DVS). The test collected percentage changes in mass of samples under a constant temperature condition of 25° C. with changes in humidity.

Prototype remaining quantity (%) Mean ([1]; time 0 min (taken as 100%)) [%] | Prototype remaining quantity (%) Mean ([1]; time 20 min) [%] | Prototype remaining quantity (%) Mean ([1]; time 60 min) [%] | Absorption after intragastric administration compared with Atrasentan (in words) [2] | Stability (in words) ([3]; 25° C./60% RH and 40° C./75% RH, one week) | Purity (area %) ([3]; 25° C./60% RH, one week) | Purity (area %) ([3]; 40° C./75% RH, one week) | Purity (area %) ([3]; Start) | Hygroscopicity (in words) ([4]; 25° C.) | Vapor sorption ([4]; 25° C./80% RH) [%] | Compound | Exposure level in rats compared with the same dosage of Atrasentan (in words) [2]
100.0 | 0.10 | 0.47 | not as good as that of Atrasentan |  |  |  |  |  |  | CCCCN(CCCC)C(=O)CN1C[C@H](c2ccc3c(c2)OCO3)[C@@H](C(=O)OC(C)OC(=O)OC2CC2)[C@@H]1c1ccc(OC)cc1 (stereo partly drawn) [Compound 7, 1-[(cyclopropoxycarbonyl)oxy]ethyl-(2R,3R,4S)-4-(benzo[d][1,3]dioxolane-5-yl)-1-[2-(dibutylamino)-2-oxoethyl]-2-(4-methoxyphenyl)pyrrolidine-3-carboxylate] | significantly lower than that of the same dosage of Atrasentan
 |  |  |  | good stability | 98.81 | 95.49 | 99.29 | lower hygroscopicity | 1.52 | CCCCN(CCCC)C(=O)CN1C[C@H](c2ccc3c(c2)OCO3)[C@@H](C(=O)OC(C)OC(=O)OC(C)C)[C@@H]1c1ccc(OC)cc1 (some centres unmarked) [Phosphate] | 
